# From patent US6528514B1, “IgE antibody production inhibitors and autoimmune diseases inhibitors” (Welfide Corporation, priority 1998, dated 2003)
# Legend:
# anti-ssDNA antibody = test: Assay of anti-ssDNA antibody in serum of HgCl2-administered BN rats; format: in vivo, rat; settings: male BN rats, Compound 1 30 mg/kg orally every day, serum day 12, 14, 16
# Protocol: (§1) HgCl2, 1 mg/mL/kg, was administered to male BN rats (8 animals per group) subcutaneously at the back every other day from day 1 to day 10, for a total of 5 times (HgCl2 administration group). Separately, in parallel with the administration of HgCl2 in the same manner as above, Compound 1 was administered orally in a daily dose of 30 mg/kg every day (Compound 1 administration group). In the normal group, PBS was administered. On day 12, day 14 and day 16, the blood was drawn from the tail vein and centrifuged to separate the serum. (2-1) Assay of anti-ssDNA antibody
# A 96-well plate was coated with 50 μL/well of ε-poly-L-lysine having a molecular weight of 2000˜4000 (Wako Pure Chemical Industries, ECN 6644, 25 μg/mL in PBS) at room temperature for 3 hours. […]
# After washing, 50 μL of the test sample diluted 50-fold with 1% BSA/PBS was added to each well, and the plate was incubated at room temperature for 2 hours. […] Amount of bound antibody was measured as the change of absorbance at 490 nm to 650 nm with the combination of peroxidase-labeled anti-rat IgE(Fc) monoclonal antibody and o-phenylendiamine (1mg/mL) and H2O2 (as the control, the OD on day 1 was used). The amount of anti-ssDNA antibody was calculated as the difference (ΔOD) from that of the background.
# The ordinate represents the difference in absorbance (ΔOD) . […]
# male BN rats = test: Arthritis assay in HgCl2-administered BN rats (hindpaw volume, severity score); format: in vivo, rat; settings: HgCl2 s.c. every other day day 1 to day 10, Compound 1 orally every day
# Protocol: HgCl2, 1 mg/mL/kg, was administered to male BN rats (8 animals per group) subcutaneously at the back every other day from day 1 to day 10, for a total of 5 times (HgCl2 administration group). Separately, in parallel with the administration of HgCl2, Compound 1 was administered orally in a daily dose of […] every day (Compound 1 administration group). In the normal group, PBS in lieu of HgCl2 was administered. On day 1, day 12, day 14, day 16 and day 18, the right and left hindpaw volumes were measured and the severity of arthritis was scored.
# With regard to right and left hindpaw volumes, the left hindpaw and right hindpaw of each rat were respectively immersed in water and the increase in volume of the water was measured to calculate the rate of increase (%).
# “LEFT” represents the left hindpaw volume and “RIGHT” represents the right hindpaw volume. The ordinate represents the rate of volume increase (%). The abscissa represents the number of days from the first day of testing to the measurement day. […]
# The arthritis severity was scored for each limb according to the following criteria and the total of scores for the four limbs (maximum score=16) and the average of the scores for 8 animals per group were calculated. […]
# IgE antibody = test: Determination of serum IgE antibody titer in HgCl2-administered BN rats (ELISA); format: in vivo, rat; settings: for inhibition at 30 mg/kg/day: Rattus norvegicus, po, read-out: Inhibition rate; for Serum IgE antibody titer / inhibition of IgE antibody titer increased by HgCl2 (in words): male BN rats; for Serum IgE antibody titer: HgCl2 1 mg/mL/kg s.c., compound 30 mg/kg/day orally for 6 days, serum on day 7, *p < 0.05
# Protocol: HgCl2, 1 mg/mL/kg, was administered to male BN rats (8 animals per group) subcutaneously at the back (HgCl2 group). Separately, to male BN rats (8 animals per group) similarly administered with HgCl2, Compounds 1˜4 were administered orally in a daily dose of 30 mg/kg for 6 consecutive days beginning the HgCl2 administration day (Compound 1 administration group, Compound 2 administration group, Compound 3 administration group, and Compound 4 administration group, respectively). Here, Compound 3 is 2-[5-amino-2-(3-methoxyphenyl)-6-oxo-1,6-dihydro-1-pyrimidinyl]-N-[1-[(benzoxazol-2-yl)carbonyl]-2-phenylethyl]acetamide and Compound 4 is 2-[5-amino-2-(3-methoxyphenyl)-6-oxo-1,6-dihydro-1-pyrimidin-yl]-N-[1-[[5-(methoxycarbonyl)benzoxazol-2-yl]carbonyl]-2-phenylethyl]acetamide. On day 7 following HgCl2 administration, the animals were sacrificed with CO2 gas, thoracotomized, and the cardiac blood was collected and centrifuged to recover the serum. The serum samples were stored at −20° C. and the IgE antibody titer was determined by the following procedure.
# Anti-rat IgE monoclonal antibody [MCARE-01] [manufactured by Biochemical Industry Co., 01404] was diluted to 5 μg/mL with 0.02% NaN3/PBS and an ELISA plate was coated with 50 μL of the solution at 4° C. overnight. After each well was washed, blocking was performed with 3% skim milk/TBS at room temperature for at least 1 hour. After another washing, 50 μL of the test sample diluted 200-fold with 1% BSA/TBS was added to each well, followed by 2 hours of incubation at room temperature. Each well was washed and 50 μL of ALP-labeled anti-rat κ & λ-chain monoclonal antibody (Sigma, lot 113H4804) diluted 5000-fold with 1% BSA/TBS was added. The plate was incubated at room temperature for 2 hours. Each well was washed again, and 50 μL/well of p-nitrophenyl phosphate (in 0.1 M diethanolamine, 1 mg/mL, pH 9.8) was added as the substrate solution. After color development, the reaction was stopped with an equal amount of 0.5 M NaOH and the OD was measured at the wavelength of 405 nm. As the standard rat IgE, Chemicon's rat IgE was used.
# human heart chymase = target: T1, human heart chymase (Homo sapiens, UniProt P23946); test: human heart chymase inhibitory activity test (amidase inhibitory activity); format: biochemical; settings: 5 nM chymase; substrate succinyl-alanyl-alanyl-prolyl-phenylalanine-p-nitroanilide; pH 7.5
# T1 sequence (P23946 22-247): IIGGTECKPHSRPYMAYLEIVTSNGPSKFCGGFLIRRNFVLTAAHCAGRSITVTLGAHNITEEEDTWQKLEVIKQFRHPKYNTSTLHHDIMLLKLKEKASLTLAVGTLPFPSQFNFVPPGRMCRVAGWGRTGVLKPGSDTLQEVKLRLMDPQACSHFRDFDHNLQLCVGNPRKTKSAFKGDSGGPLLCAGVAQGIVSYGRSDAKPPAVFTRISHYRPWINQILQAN
# Protocol: The human heart chymase-inhibitory activity of the obtained Compound 1 was assayed in terms of amidase inhibitory activity of human heart chymase and the efficacy of the compound was evaluated as follows.
# The inhibitory activity was determined from the change in residual activity fraction of 5 nM chymase using a concentration series (<×1,<×10,<×100 equivalents) of Compound 1 in the presence of the synthetic substrate succinyl-alanyl-alanyl-prolyl-phenylalanine-p-nitroanilide at a final concentration of 2.5 mmol. Analysis of inhibitory potency was made by the least square regression of the Easson-Stedman plot utilizing bimolecular equilibrium reaction linearization (Proc. Roy. Soc. B., 121, 141, 1936). The apparent inhibition constant (Kiapp) obtained by this analysis and the inhibition constant (Ki) calculated from the final concentration of the substrate in the reaction mixture and the Km value measured separately were used to evaluate the inhibitory activity. For determination of the initial velocity of the enzymatic reaction, the amount of p-nitroaniline produced by hydrolysis of the substrate was spectrometrically estimated from the increase in the absorbance at 405 nm after subtraction of the absorbance at 650 nm. […]
# From the absorbance reading immediately after addition of the enzyme, the increase in absorbance was recorded at exactly equal time-intervals as a progressive curve.
# [1] = tested on: anti-type II collagen antibody; test: Assay of anti-type II collagen antibody in serum of HgCl2-administered BN rats; format: in vivo, rat; settings: male BN rats, Compound 1 30 mg/kg orally every day, serum day 12, 14, 16
# Protocol: as §1
# Type II collagen (Collagen Technology Forum, 64-50823) was diluted to 50 μg/mL with 0.02% NaN3/PBS and an ELISA plate was coated with 50 μL/well at 4° C. overnight. After washing, 50 μL of the test sample diluted 50-fold with 1% BSA/PBS was added to the each well and the plate was incubated at room temperature for 2 hours. As the background, wells not supplied with the test sample were provided. Amount of bound antibody was measured as the change of absorbance at 490 nm to 650 nm with the combination of peroxidase-labeled anti-rat IgE(Fc) monoclonal antibody and o-phenylendiamine (1 mg/mL) and H2O2 (as the control, the OD on day 1 was used). The amount of anti-type II collagen antibody was calculated as the difference (ΔOD) from that of the background.
# The ordinate represents the difference in absorbance (ΔOD). […]
# [2] = inhibition of serum IgE antibody titer vs HgCl2 group, 30 mg/kg/day orally for 6 days, day 7
Compound,"amount of anti-ssDNA antibody (ΔOD, FIG. 3) (anti-ssDNA antibody)",rate of increase in left and right hindpaw volumes (FIG. 1) (male BN rats; measured up to day 18),"arthritis severity score (FIG. 2) (male BN rats; total of four limbs, maximum 16)",inhibition at 30 mg/kg/day (IgE antibody; [2]),Serum IgE antibody titer (IgE antibody),inhibition of IgE antibody titer increased by HgCl2 (in words) (IgE antibody; 30 mg/kg/day orally for 6 days),Ki (human heart chymase),"anti-type II collagen antibody titer (ΔOD, FIG. 4) [1]",Inhibition rate (IgE antibody; [2])
"COC(=O)c1ccc2oc(C(=O)C(Cc3ccccc3)NC(=O)Cn3c(-c4ccc(F)cc4)ncc(N)c3=O)nc2c1 (centres unmarked) [Compound 1, 2-[5-amino-2-(4-fluorophenyl)-6-oxo-1,6-dihydro-1-pyrimidinyl]-N-[1-[[5-(methoxycarbonyl)benzoxazol-2-yl]carbonyl]-2-phenylethyl]acetamide]",significantly reduced,significantly suppressed,significantly reduced,27.8%,62.24 ± 5.08*,significantly inhibited,23 nM,reduced,–
"Nc1cnc(-c2cccc(Cl)c2)n(CC(=O)NC(Cc2ccccc2)C(=O)C(F)(F)C(=O)NCc2ccccc2)c1=O (centres unmarked) [Compound 2, 2-[5-amino-2-(3-chlorophenyl)-1 6-dihydro-6-oxo-1-pyrimidinyl]-N-[1-benzyl-3-[N-(benzyl)carbamoyl]-3,3-difluoro-2-oxopropyl]acetamide]",–,–,–,–,67 ± 7.57 µg/mL,tendency to inhibit,–,–,22.3%
"COc1cccc(-c2ncc(N)c(=O)n2CC(=O)NC(Cc2ccccc2)C(=O)c2nc3ccccc3o2)c1 (centres unmarked) [Compound 3, 2-[5-amino-2-(3-methoxyphenyl)-6-oxo-1,6-dihydro-1-pyrimidinyl]-N-[1-[(benzoxazol-2-yl)carbonyl]-2-phenylethyl]acetamide]",–,–,–,24.3%,65.25 ± 6.71*,significantly inhibited,–,–,–
"COC(=O)c1ccc2oc(C(=O)C(Cc3ccccc3)NC(=O)Cn3c(-c4cccc(OC)c4)ncc(N)c3=O)nc2c1 (centres unmarked) [Compound 4, 2-[5-amino-2-(3-methoxyphenyl)-6-oxo-1,6-dihydro-1-pyrimidin-yl]-N-[1-[[5-(methoxycarbonyl)benzoxazol-2-yl]carbonyl]-2-phenylethyl]acetamide]",–,–,–,23.4%,66.10 ± 8.46*,significantly inhibited,–,–,–
